Reference: PMC7699381, “Rare-Earth Metal Complexes of the Antibacterial Drug Oxolinic Acid: Synthesis, Characterization, DNA/Protein Binding and Cytotoxicity Studies” (Molecules, 2020)
Where two headings read alike, the source gives them in different places.

Experiments:
[1] = tested on: MDA-MB 231 (human breast adenocarcinoma); assay: MTS cytotoxicity assay, MDA-MB 231 cells; assay type: cell-based
Experimental: (§1) For the evaluation of the cytotoxic effects of the complexes and ligand two human cancer cell lines were used, namely MDA-MB 231 (human breast adenocarcinoma) and LoVo (human colon adenocarcinoma); a normal cell line, human umbilical vein endothelial cells (HUVEC), was used as a reference. […] After 24 h and 48 h, respectively, cell viability was evaluated through MTS assay (data shown in Figures S16–S18) and the IC50 values were calculated (Table 5). The cytotoxicity assay is based on the ability of metabolically active cells to reduce MTS, a yellow tetrazolium salt, to the colored formazan, soluble in the culture medium; the concentration of formazan can be spectrophotometrically determined. […] PES is a cationic dye with high chemical stability that binds to MTS and forms a stable solution. […] The reduced MTS to formazan was spectrophotometrically measured at λ = 492 nm. The test was run on two cancer cell lines, LoVo and MDA-MB 231, and on a normal cell line, HUVEC. […] Cell viability data were obtained in triplicate (n = 3) and expressed as mean values ± standard deviations (SD). […] All assays were performed in 96-well microtiter plates with flat bottom (Falcon), using CellTiter 96 Aqueous One Solution Cell Proliferation Assay (Promega), an MTS-based colorimetric assay. The formazan was spectrophotometrically measured using the Tecan GENios Spectrophotometer.

[2] = tested on: LoVo (human colon adenocarcinoma); assay: MTS cytotoxicity assay, LoVo cells; assay type: cell-based; details: 48 h of incubation
Experimental: as §1

[3] = tested on: HUVEC (normal human umbilical vein endothelial cells); assay: MTS cytotoxicity assay, HUVEC normal cells; assay type: cell-based; details: 48 h of incubation
Experimental: as §1

EB-DNA system (CT-DNA) = assay: Competitive binding assay with ethidium bromide (EB) through fluorescence spectroscopy; design: species or system calf; details: 10 µM CT-DNA, 2 µM EB; for Ksv (Stern-Volmer quenching constant, EB-DNA system): 0–40 µM compound, λex 500 nm; for K50 (EB Displacement Assay): concentration corresponding to 50% binding
From the text: The manner of binding to the DNA macromolecule can be investigated through competitive binding studies with ethidium bromide (3,8-diamino-5-ethyl-6-phenylphenanthridinium bromide), a fluorescent dye; due to its aromatic ring, it can intercalate between two adjacent base pairs in the DNA structure and form a complex which emits fluorescent light; displacing EB results in a quenching effect. The Stern-Volmer constant (KSV) and the dissociation constant (K50) have been calculated from the resulting data.
Competitive binding studies were carried out on a Jasco FP 6500 fluorometer at room temperature, using quartz cells of 1 cm path-length. The fluorescence spectra were recorded on 1.6 mL samples containing 10 µM CT-DNA and 2 µM EB in the absence and presence of increasing amounts (0–40 µM with an increment of 5 µM) of complexes and free ligands, respectively, after being kept in contact for 10 min at room temperature, under continuous stirring and in the dark. The excitation wavelength used was 500 nm and the spectra was recorded in the 520–800 nm range. Two control samples were used, the first one containing DMSO, DNA and EB and the second one just the complex.
Data from the assay can be interpreted using the classical Stern-Volmer equation (Equation (3)):(3) F0/F=1+ KSV·[Q] where F0 and F are the fluorescence intensities of the EB-DNA samples in the absence and presence of the tested compounds and [Q] is the concentration of the compound; KSV is the Stern-Volmer constant and can be calculated from the plot of F0/F vs. [Q] as the slope.
The ratio of binding relative to the control sample exposed only to DMSO was plotted against the logarithm of concentration. The data points were fitted using the modified Hill function with offset (Origin®) (Equation (4)):(4) y=A1+(A2−A1)×x^n/K50^n+x^n where y is the ratio of binding (F/F0) and x is the concentration, A1 is the minimum of y values, A2 is the maximum of y values, K50 is the concentration corresponding to 50% binding and n is the Hill coefficient.

[4] = biological target: T1, Human serum albumin (HSA) (Homo sapiens, UniProt P02768)
[5] = biological target: T1, Human serum albumin (HSA); assay: Fluorescence quenching of human serum albumin; details: for quenching effect on HSA fluorescence peak / Ksv (Stern-Volmer constant), HSA: 2.5 µM HSA; for quenching effect on HSA fluorescence peak: compound up to 8 µM, λex 280 nm; for Ka (association binding constant), HSA / n (Hill Coefficient), HSA / n (Number of Binding Sites), HSA / Ksv (Stern-Volmer constant), HSA / Kq (bimolecular quenching constant), HSA / fa (fraction of fluorophore accessible to the quencher), HSA / Kd: 298 K; for Ksv (Stern-Volmer constant), HSA: 0–8 µM compound, pH 7.4; for Kq (bimolecular quenching constant), HSA: from KSV = Kq τ0; for fa (fraction of fluorophore accessible to the quencher), HSA: modified Stern-Volmer; for Kd: HSA
Apo-transferrin (apo-Tf) = biological target: T2, Apo-transferrin (apo-Tf) (Homo sapiens, UniProt P02787); assay: Fluorescence quenching of apo-transferrin; assay type: binding; details: for quenching effect on apo-Tf fluorescence peak / Ksv (Stern-Volmer constant), apo-Tf: 1 µM apo-Tf; for quenching effect on apo-Tf fluorescence peak: compound up to 8 µM, λex 295 nm; for Ka (association binding constant), apo-Tf / n (Hill Coefficient), apo-Tf / n (Number of Binding Sites), apo-Tf / Ksv (Stern-Volmer constant), apo-Tf / Kq (bimolecular quenching constant), apo-Tf / fa (fraction of fluorophore accessible to the quencher), apo-Tf / Kd: 298 K; for Ksv (Stern-Volmer constant), apo-Tf: 0–8 µM compound, pH 7.4; for Kq (bimolecular quenching constant), apo-Tf: from KSV = Kq τ0; for fa (fraction of fluorophore accessible to the quencher), apo-Tf: modified Stern-Volmer
T2 construct: purchased Sigma Aldrich Chemical Co. (Schnelldorf, Germany)

[6] = tested on: CT-DNA (double-stranded calf-thymus DNA); assay: DNA binding by UV-Vis spectra (titration with CT-DNA); details: 20 µM compound, 0–40 µM DNA, Tris-HCl pH 7.4, room temperature
[7] = Homo sapiens, MDA-MB-231, 48 h of incubation

T2 sequence (P02787 20-698): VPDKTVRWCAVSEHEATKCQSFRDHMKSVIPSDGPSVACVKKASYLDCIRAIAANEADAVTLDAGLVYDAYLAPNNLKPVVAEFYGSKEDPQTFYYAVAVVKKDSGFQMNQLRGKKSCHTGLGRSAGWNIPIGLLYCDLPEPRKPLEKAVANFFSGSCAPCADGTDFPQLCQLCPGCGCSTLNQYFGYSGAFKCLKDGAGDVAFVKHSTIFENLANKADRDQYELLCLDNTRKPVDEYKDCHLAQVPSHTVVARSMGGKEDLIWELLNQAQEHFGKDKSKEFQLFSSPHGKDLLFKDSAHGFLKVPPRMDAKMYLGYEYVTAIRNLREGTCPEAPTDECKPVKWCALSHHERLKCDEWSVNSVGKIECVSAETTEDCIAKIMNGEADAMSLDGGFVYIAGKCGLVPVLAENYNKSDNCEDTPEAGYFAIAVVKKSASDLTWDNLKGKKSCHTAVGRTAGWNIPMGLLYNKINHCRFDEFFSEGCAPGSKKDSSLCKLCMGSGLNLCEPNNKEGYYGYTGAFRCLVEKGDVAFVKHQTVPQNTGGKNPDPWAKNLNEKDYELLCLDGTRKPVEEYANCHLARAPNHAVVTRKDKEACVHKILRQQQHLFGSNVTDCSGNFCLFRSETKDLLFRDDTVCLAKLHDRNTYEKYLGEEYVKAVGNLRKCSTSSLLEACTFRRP
T1 sequence (P02768 25-609): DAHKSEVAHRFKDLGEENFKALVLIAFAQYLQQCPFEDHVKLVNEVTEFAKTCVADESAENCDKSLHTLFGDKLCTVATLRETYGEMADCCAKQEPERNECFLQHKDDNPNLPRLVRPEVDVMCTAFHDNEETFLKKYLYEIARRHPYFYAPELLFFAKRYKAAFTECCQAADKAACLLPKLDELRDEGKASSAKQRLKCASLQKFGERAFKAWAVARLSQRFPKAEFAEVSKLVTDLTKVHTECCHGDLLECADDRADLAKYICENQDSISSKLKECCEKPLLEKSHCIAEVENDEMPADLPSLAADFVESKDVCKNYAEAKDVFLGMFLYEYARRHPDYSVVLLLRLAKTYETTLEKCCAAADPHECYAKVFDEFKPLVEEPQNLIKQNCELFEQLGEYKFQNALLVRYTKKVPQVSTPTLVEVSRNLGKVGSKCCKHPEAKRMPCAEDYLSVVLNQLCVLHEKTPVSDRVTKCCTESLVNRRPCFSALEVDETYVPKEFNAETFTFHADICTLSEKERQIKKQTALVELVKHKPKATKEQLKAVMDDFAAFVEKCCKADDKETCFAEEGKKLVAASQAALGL

Compound	IC50 [2] [µM]	IC50 [3] [µM]	Ksv (Stern-Volmer quenching constant, EB-DNA system) (EB-DNA system (CT-DNA))	K50 (EB Displacement Assay) (EB-DNA system (CT-DNA)) [µM]	IC50 ([1]; 48 h of incubation) [µM]	Kd [4] [µM]	quenching effect on HSA fluorescence peak [5]	Ka (association binding constant), HSA [5]	n (Hill Coefficient), HSA [5]	n (Number of Binding Sites), HSA [5]	Ksv (Stern-Volmer constant), HSA [5]	Kq (bimolecular quenching constant), HSA [5] [M⁻¹ s⁻¹]	fa (fraction of fluorophore accessible to the quencher), HSA [5]	Ka (association binding constant), apo-Tf (Apo-transferrin (apo-Tf))	n (Hill Coefficient), apo-Tf (Apo-transferrin (apo-Tf))	n (Number of Binding Sites), apo-Tf (Apo-transferrin (apo-Tf))	Ksv (Stern-Volmer constant), apo-Tf (Apo-transferrin (apo-Tf))	Kq (bimolecular quenching constant), apo-Tf (Apo-transferrin (apo-Tf)) [M⁻¹ s⁻¹]	fa (fraction of fluorophore accessible to the quencher), apo-Tf (Apo-transferrin (apo-Tf))	Kd (Apo-transferrin (apo-Tf); read-out: Kd, apo-Tf) [µM]	also measured
COc1cccc2c1C(=O)c1c(O)c3c(c(O)c1C2=O)C[C@@](O)(C(=O)CO)C[C@@H]3O[C@H]1C[C@H](N)[C@H](O)[C@H](C)O1 [ADR, adriamycin, reference compound]	–	–	–	–	–	–	–	–	–	–	–	–	–	–	–	–	–	–	–	–	IC50 [1, 7]: 7.85 ± 0.7 µM
N.N.[Cl][Pt][Cl] [Cis-Pt, Cisplatin, reference compound]	40.1 ± 13.9	28.5 ± 6.28	–	–	–	–	–	–	–	–	–	–	–	–	–	–	–	–	–	–	–
CCn1cc(C(=O)[O][Eu]([OH])[O]C(=O)c2cn(CC)c3cc4c(cc3c2=O)OCO4)c(=O)c2cc3c(cc21)OCO3.O [Eu oxo, [Eu(oxo)(OH)(H2O)]]	107 ± 16	> 200	(1.26 ± 0.02) × 10^4	40.15 ± 11.82	73.7 ± 19.8	5.56 ± 0.86	~ 58%	(4.75 ± 0.80) × 10^5 M^−1	1.33 ± 0.18	1.11 ± 0.01	11.25 (± 0.92) × 10^4 M^−1	1.125e+13	0.94 ± 0.04	(2.74 ± 0.41) × 10^4 M^−1	0.95 ± 0.21	0.88 ± 0.01	(16.55 ± 0.94) × 10^4 M^−1	1.655e+13	0.81 ± 0.02	8.27 ± 4.17	Ksv (Stern-Volmer constant), HSA ([5]; listed as Eu-oxo): (11.25 ± 0.92) × 10^4 M^−1; quenching effect on apo-Tf fluorescence peak (Apo-transferrin (apo-Tf)): 50%; Kb (DNA binding constant) [6]: 10.72 (± 2.47) × 10^5 L∙mol^−1
CCn1cc(C(=O)[O][Y]([OH])[O]C(=O)c2cn(CC)c3cc4c(cc3c2=O)OCO4)c(=O)c2cc3c(cc21)OCO3.O [Y oxo, [Y(oxo)(OH)(H2O)]]	90.4 ± 9.3	> 200	8.38 (±0.29) × 10^3	28.07 ± 4.44	33.2 ± 14.9	6.3 ± 2.47	–	(2.04 ± 0.74) × 10^5 M^−1	1.52 ± 0.47	1.44 ± 0.03	(10.53 ± 0.95) × 10^4 M^−1	1.053e+13	1.07 ± 0.05	4.40(±1.09) × 10^4 M^−1	1.58 ± 0.23	0.94 ± 0.01	6.52 (± 0.56) × 10^4 M^−1	6.52e+12	1.15 ± 0.07	8.34 ± 1.71	Ksv (Stern-Volmer quenching constant, EB-DNA system) (EB-DNA system (CT-DNA); listed as Y-oxo): (8.38 ± 0.29) × 10^3; quenching effect on apo-Tf fluorescence peak (Apo-transferrin (apo-Tf)): 35%; Ksv (Stern-Volmer constant), apo-Tf (Apo-transferrin (apo-Tf); listed as Y-oxo): (6.52 ± 0.56) × 10^4 M^−1; Ka (association binding constant), apo-Tf (Apo-transferrin (apo-Tf); listed as Y-oxo): (4.40 ± 1.09) × 10^4 M^−1
CCn1cc(C(=O)O)c(=O)c2cc3c(cc21)OCO3 [oxo, 5-ethyl-5,8-dihydro-8-oxo-l,3 dioxolo[4,5-g]quinoline-7-carboxylic acid, reference compound]	–	–	(1.05 ± 0.02) × 10^4	42.07 ± 18.48	–	–	–	–	1.62 ± 0.39	0.90 ± 0.01	(1.95 ± 0.38) × 10^4 M^−1	1.95e+12	1.92 ± 0.35	–	1.89 ± 1.35	0.67 ± 0.00	(17.45 ± 0.95) × 10^4 M^−1	1.745e+13	0.36±0.01	–	IC50 [1, 7]: 43.5 ± 4.94 µM; Ksv (Stern-Volmer constant), HSA ([5]; listed as oxolinic acid): 1.95 (± 0.38) × 10^4 M^−1; Kd ([5]; Ka (association binding constant)): 92.6 µM; Kd ([5]; Kd): 7.26 ± 2.66 µM; Kd (Apo-transferrin (apo-Tf); Kd, apo-Tf): 8.11 ± 7.34 µM; IC50 ([2]; Homo sapiens, LoVo): > 200 µM; IC50 ([3]; Homo sapiens, HUVEC): > 200 µM
[Gd(oxo)(OH)(H2O)]·0.5H2O [Gd oxo]	56.5 ± 3.83	> 200	(1.18 ± 0.01) × 10^4	47.75 ± 25.22	73.8 ± 18.5	5.32 ± 0.69	~ 47%	(1.98 ± 0.82) × 10^5 M^−1	1.81 ± 0.26	1.06 ± 0.03	(5.77 ± 0.84) × 10^4 M^−1	5.77e+12	1.39 ± 0.15	(0.58 ± 0.25) × 10^4 M^−1	1.24 ± 0.45	0.76 ± 0.03	(17.51 ± 1.06) × 10^4 M^−1	1.751e+13	0.73 ± 0.02	8.8 ± 6.57	–
[Tb(oxo)(OH)(H2O)] · 0.5 H2O [Tb oxo]	40.6 ± 7.43	> 200	(1.18 ± 0.00) × 10^4	20.28 ± 1.15	> 200	5.97 ± 0.89	52.63%	6.83(±1.33) × 10^5 M^−1	1.58 ± 0.20	1.18 ± 0.01	(2.84 ± 0.70) × 10^4 M^−1	2.84e+12	2.13 ± 0.45	(1.28 ± 0.17) × 10^4 M^−1	1.57 ± 0.33	0.81 ± 0.01	19.45 (± 1.10) × 10^4 M^−1	1.945e+13	0.77 ± 0.01	5.57 ± 1.22	Ka (association binding constant), HSA ([5]; listed as Tb-oxo): (6.83 ± 1.33) × 10^5 M^−1; quenching effect on apo-Tf fluorescence peak (Apo-transferrin (apo-Tf)): 47.62%; Ksv (Stern-Volmer constant), apo-Tf (Apo-transferrin (apo-Tf); listed as Tb-oxo): (19.45 ± 1.10) × 10^4 M^−1
